Assay results as given in US20240308996A1, “PYRIDOPYRIDINES AND DERIVATIVES THEREOF AS SELECTIVE KINASE INHIBITORS” (University of Sharjah, priority 2023, published 2024).
One block for each compound: values may come before it.

Experiments:
[1] = system: HepG2; assay: MTT assay, HepG2 HCC cell line; format: cell-based; conditions: Homo sapiens, 48 h, mean of triplicate assays ± SEM
Procedure: (§1) Two HCC cell lines (Hep3B and HepG2) were used for screening the antiproliferative activity of the synthesized compounds. The cell lines were obtained from the European Collection of Cell Cultures (ECACC, UK) and maintained in Dulbecco's Modified Eagle Medium (DMEM: Sigma-Aldrich) supplemented with 10% fetal bovine serum (FBS) and 1% penicillin/streptomycin and incubated at 37° C. in a 5% CO2 air atmosphere. In addition, WI-38 normal cell line was used to investigate the safety of these compounds.
(§2) MTT assay was conducted to calculate the IC50 of the compounds following the reported procedure . Briefly, the cells were seeded in 96-well tissue culture plates with a density of 5×10^4 cells/well and incubated overnight at 37° C. in a 5% CO2 air atmosphere. […] DMSO was used as a negative control. After 48 h, the media were aspirated, and replaced with media containing 0.5 mg/mL of MTT tetrazolium dye (Sigma-Aldrich) for 2 h at 37° C. Finally, the media were removed and 200 μL of DMSO was added to solubilize the formazan crystals. Absorbance was then measured at 570 nm using Varioskan Flash multimode plate reader (Thermo Scientific, Massachusetts, USA).

[2] = system: Hep3B; assay: MTT assay, Hep3B HCC cell line; format: cell-based; conditions: Homo sapiens, 48 h, mean of triplicate assays ± SEM
Procedure: as §1, §2

[3] = system: hepatocellular carcinoma cell lines; assay: Screening against HCC cell lines; format: cell-based
Procedure: The target compounds were tested against hepatocellular carcinoma cell lines. Compounds 1j. 13a. 13b. 13c. […] The mean inhibition percentage values are illustrated in Table 9.
as §1
MTT assay was conducted to calculate the IC50 of the compounds following the reported procedure . Briefly, the cells were seeded in 96-well tissue culture plates with a density of 5×10^4 cells/well and incubated overnight at 37° C. in a 5% CO2 air atmosphere. After that, cells were treated with the newly synthesized compounds or sorafenib as a positive control. DMSO was used as a negative control. After 48 h, the media were aspirated, and replaced with media containing 0.5 mg/mL of MTT tetrazolium dye (Sigma-Aldrich) for 2 h at 37° C. Finally, the media were removed and 200 μL of DMSO was added to solubilize the formazan crystals. Absorbance was then measured at 570 nm using Varioskan Flash multimode plate reader (Thermo Scientific, Massachusetts, USA).

[4] = system: OVCAR-8; assay: NCI-60 cell line panel: OVCAR-8; format: cell-based; conditions: Ovarian Cancer, total growth inhibition, in µM (unit assumed)
Procedure: (§3) It was carried out at the NCI, Bethesda, MD, USA, utilizing their standard protocol.

[5] = system: HCT-15; assay: NCI-60 cell line panel: HCT-15; format: cell-based; conditions: Colon Cancer, total growth inhibition
Procedure: as §3

[6] = system: NCI-H322M; assay: NCI-60 cell line panel: NCI-H322M; format: cell-based; conditions: Non-Small Cell Lung Cancer, total growth inhibition
Procedure: as §3

[7] = system: CAKI-1; assay: NCI-60 cell line panel: CAKI-1; format: cell-based; set-up: TGI: unit not given here; conditions: Renal Cancer, total growth inhibition
Procedure: as §3

[8] = system: SNB-75; assay: NCI-60 cell line panel: SNB-75; format: cell-based; set-up: TGI: unit not given here; conditions: CNS Cancer, total growth inhibition
Procedure: as §3

[9] = system: OVCAR-4; assay: NCI-60 cell line panel: OVCAR-4; format: cell-based; conditions: Ovarian Cancer, total growth inhibition, in µM (unit assumed)
Procedure: as §3

[10] = system: OVCAR-3; assay: NCI-60 cell line panel: OVCAR-3; format: cell-based; conditions: Ovarian Cancer, total growth inhibition
Procedure: as §3

[11] = system: SK-MEL-28; assay: NCI-60 cell line panel: SK-MEL-28; format: cell-based; conditions: Melanoma, total growth inhibition
Procedure: as §3

[12] = system: NCI-H23; assay: NCI-60 cell line panel: NCI-H23; format: cell-based; conditions: Non-Small Cell Lung Cancer
Procedure: as §3

[13] = system: DU-145; assay: NCI-60 cell line panel: DU-145; format: cell-based; conditions: Prostate Cancer, total growth inhibition
Procedure: as §3

[14] = system: TK-10; assay: NCI-60 cell line panel: TK-10; format: cell-based; conditions: Renal Cancer
Procedure: as §3

[15] = system: EKVX; assay: NCI-60 cell line panel: EKVX; format: cell-based; conditions: Non-Small Cell Lung Cancer, total growth inhibition, in µM (unit assumed)
Procedure: as §3

[16] = system: MALME-3M; assay: NCI-60 cell line panel: MALME-3M; format: cell-based; conditions: Melanoma
Procedure: as §3

[17] = system: IGROV1; assay: NCI-60 cell line panel: IGROV1; format: cell-based; conditions: Ovarian Cancer, total growth inhibition
Procedure: as §3

[18] = system: MCF7; assay: NCI-60 cell line panel: MCF7; format: cell-based; conditions: Breast Cancer, total growth inhibition
Procedure: as §3

[19] = system: SK-MEL-2; assay: NCI-60 cell line panel: SK-MEL-2; format: cell-based; set-up: TGI: unit not given here; conditions: Melanoma
Procedure: as §3

[20] = system: SN12C; assay: NCI-60 cell line panel: SN12C; format: cell-based; conditions: Renal Cancer, total growth inhibition
Procedure: as §3

[21] = system: COLO 205; assay: NCI-60 cell line panel: COLO 205; format: cell-based; set-up: TGI: unit not given here; conditions: Colon Cancer
Procedure: as §3

[22] = system: MDA-MB-231/ATCC; assay: NCI-60 cell line panel: MDA-MB-231/ATCC; format: cell-based; conditions: Breast Cancer
Procedure: as §3

[23] = system: UACC-257; assay: NCI-60 cell line panel: UACC-257; format: cell-based; conditions: Melanoma
Procedure: as §3

[24] = system: 786-0; assay: NCI-60 cell line panel: 786-0; format: cell-based; conditions: Renal Cancer, total growth inhibition
Procedure: as §3

[25] = system: NCI-H226; assay: NCI-60 cell line panel: NCI-H226; format: cell-based; conditions: Non-Small Cell Lung Cancer
Procedure: as §3

[26] = system: HS 578T; assay: NCI-60 cell line panel: HS 578T; format: cell-based; conditions: Breast Cancer, HS 578T; total growth inhibition
Procedure: as §3

[27] = system: panel of 50 kinases; assay: 50-kinase panel; format: biochemical
[28] = system: U251; assay: NCI-60 cell line panel: U251; format: cell-based; set-up: TGI: unit not given here
Procedure: as §3

[29] = system: HOP-62; assay: NCI-60 cell line panel: HOP-62; format: cell-based; conditions: Non-Small Cell Lung Cancer
Procedure: as §3

[30] = system: SK-OV-3; assay: NCI-60 cell line panel: SK-OV-3; format: cell-based; conditions: Ovarian Cancer, total growth inhibition
Procedure: as §3

[31] = system: CCRF-CEM; assay: NCI-60 cell line panel: CCRF-CEM; format: cell-based; conditions: Leukemia
Procedure: as §3

[32] = system: NCI-H460; assay: NCI-60 cell line panel: NCI-H460; format: cell-based; conditions: Non-Small Cell Lung Cancer, total growth inhibition
Procedure: as §3

[33] = system: BT-549; assay: NCI-60 cell line panel: BT-549; format: cell-based; conditions: Breast Cancer, total growth inhibition
Procedure: as §3

[34] = system: M14; assay: NCI-60 cell line panel: M14; format: cell-based; conditions: Melanoma
Procedure: as §3

[35] = system: UO-31; assay: NCI-60 cell line panel: UO-31; format: cell-based; set-up: TGI: unit not given here; conditions: Renal Cancer, total growth inhibition
Procedure: as §3

[36] = system: SNB-19; assay: NCI-60 cell line panel: SNB-19; format: cell-based; conditions: CNS Cancer, total growth inhibition
Procedure: as §3

[37] = system: MOLT-4; assay: NCI-60 cell line panel: MOLT-4; format: cell-based; set-up: TGI: unit not given here; conditions: Leukemia, total growth inhibition
Procedure: as §3

[38] = system: PC-3; assay: NCI-60 cell line panel: PC-3; format: cell-based; conditions: Prostate Cancer
Procedure: as §3

[39] = system: OVCAR-5; assay: NCI-60 cell line panel: OVCAR-5; format: cell-based; conditions: Ovarian Cancer, total growth inhibition
Procedure: as §3

[40] = system: NCI-H522; assay: NCI-60 cell line panel: NCI-H522; format: cell-based; set-up: TGI: unit not given here; conditions: Non-Small Cell Lung Cancer
Procedure: as §3

[41] = system: NCI/ADR-RES; assay: NCI-60 cell line panel: NCI/ADR-RES; format: cell-based; set-up: TGI: unit not given here; conditions: Ovarian Cancer, total growth inhibition
Procedure: as §3

[42] = system: A498; assay: NCI-60 cell line panel: A498; format: cell-based; conditions: Renal Cancer, total growth inhibition
Procedure: as §3

[43] = system: ACHN; assay: NCI-60 cell line panel: ACHN; format: cell-based; conditions: Renal Cancer, total growth inhibition
Procedure: as §3

[44] = system: MDA-MB-468; assay: NCI-60 cell line panel: MDA-MB-468; format: cell-based; conditions: Breast Cancer, total growth inhibition
Procedure: as §3

[45] = system: SW-620; assay: NCI-60 cell line panel: SW-620; format: cell-based; conditions: Colon Cancer, total growth inhibition
Procedure: as §3

[46] = system: SF-268; assay: NCI-60 cell line panel: SF-268; format: cell-based; conditions: CNS Cancer, total growth inhibition
Procedure: as §3

[47] = system: HT29; assay: NCI-60 cell line panel: HT29; format: cell-based
Procedure: as §3

[48] = system: SR; assay: NCI-60 cell line panel: SR; format: cell-based; conditions: Leukemia, total growth inhibition
Procedure: as §3

[49] = system: A549/ATCC; assay: NCI-60 cell line panel: A549/ATCC; format: cell-based; conditions: Non-Small Cell Lung Cancer, total growth inhibition
Procedure: as §3

[50] = system: RXF 393; assay: NCI-60 cell line panel: RXF 393; format: cell-based; conditions: Renal Cancer, total growth inhibition
Procedure: as §3

IC50 [1]: 3.68 ± 0.22 µM
IC50 [2]: 3.87 ± 0.13 µM
SMILES: O=C(Nc1ccc(-c2cc(C(=O)Nc3ccccn3)c3ncccc3n2)cc1)Nc1ccc(F)c(C(F)(F)F)c1 [Compound 1j, 2-(4-(3-(4-Fluoro-3-(trifluoromethyl)phenyl)ureido)phenyl)-N-(pyridin-2-yl)-1,5-naphthyridine-4-carboxamide]
inhibition activity against hepatocellular carcinoma cell lines compared with sorafenib [3]: higher inhibition activity than sorafenib

SMILES: CNC(=O)c1cc(Oc2ccc(NC(=O)Nc3ccc(Cl)c(C(F)(F)F)c3)cc2)ccn1 [Sorafenib, reference compound]
TGI [4]: 12.59
TGI [5]: 3.16 µM
TGI [6]: 5.01 µM
TGI [7]: 12.59
TGI [8]: 3.98
TGI [9]: 25.12
TGI [10]: 3.98 µM
TGI [11]: 2.51 µM
IC50 ([12]; Homo sapiens): 2 µM
TGI ([12]; total growth inhibition): 5.01 µM
TGI [13]: 7.94 µM
IC50 ([14]; Homo sapiens): 3.98 µM
TGI ([14]; total growth inhibition): 10 µM
TGI [15]: 19.95
IC50 ([16]; Homo sapiens): 2 µM
TGI ([16]; total growth inhibition, in µM (unit assumed)): 39.81
TGI [17]: 10 µM
TGI [18]: 7.94 µM
IC50 ([19]; Homo sapiens): 2 µM
TGI ([19]; total growth inhibition): 6.31
TGI [20]: 3.16 µM
TGI ([21]; total growth inhibition): 3.16
IC50 ([21]; Homo sapiens): 2 µM
TGI ([22]; total growth inhibition): 3.16 µM
IC50 ([22]; Homo sapiens): 1.26 µM
IC50 ([23]; Homo sapiens): 2 µM
TGI ([23]; total growth inhibition): 5.01 µM
TGI [24]: 5.01 µM
IC50 ([25]; Homo sapiens): 2 µM
TGI ([25]; total growth inhibition): 3.16 µM
TGI [26]: 3.98 µM
number of kinases inhibited (more than 50% inhibition) [27]: 22 kinases
TGI ([28]; CNS Cancer, total growth inhibition): 3.16
IC50 ([28]; Homo sapiens, U-251, CNS Cancer): 2 µM
IC50 ([29]; Homo sapiens): 2 µM
TGI ([29]; total growth inhibition): 3.16 µM
TGI [30]: 5.01 µM
IC50 ([31]; Homo sapiens): 2 µM
TGI ([31]; total growth inhibition): 5.01 µM
TGI [32]: 5.01 µM
TGI [33]: 3.98 µM
IC50 ([34]; Homo sapiens): 2 µM
TGI ([34]; total growth inhibition): 3.16 µM
TGI [35]: 6.31
TGI [36]: 3.98 µM
TGI [37]: 100
IC50 ([38]; Homo sapiens): 2 µM
TGI ([38]; total growth inhibition): 5.01 µM
TGI [39]: 6.31 µM
IC50 ([40]; Homo sapiens): 2 µM
TGI ([40]; total growth inhibition): 5.01
TGI [41]: 7.94
TGI [42]: 3.16 µM
TGI [43]: 10 µM
TGI [44]: 7.94 µM
TGI [45]: 5.01 µM
TGI [46]: 3.98 µM
TGI ([47]; Colon Cancer, total growth inhibition): 5.01 µM
IC50 ([47]; Homo sapiens, HT-29, Colon Cancer): 2 µM
TGI [48]: 63.1 µM
TGI [49]: 7.94 µM
TGI [50]: 5.01 µM

IC50 [1]: 1.27 ± 0.14 µM
IC50 [2]: 1.89 ± 0.18 µM
SMILES: CNC(=O)c1cc(-c2ccc(NC(=O)Nc3ccc(N4CCOCC4)c(C(F)(F)F)c3)cc2)nc2cccnc12 [Compound 13a, N-Methyl-2-(4-(3-(4-morpholino-3-(trifluoromethyl)phenyl)ureido)phenyl)-1,5-naphthyridine-4-carboxamide]
inhibition activity against hepatocellular carcinoma cell lines compared with sorafenib [3]: higher inhibition activity than sorafenib

IC50 [1]: 5.74 ± 0.2 µM
IC50 [2]: 6.56 ± 0.31 µM
SMILES: CNC(=O)c1cc(-c2ccc(NC(=S)Nc3cc(C(F)(F)F)cc(C(F)(F)F)c3)cc2)nc2cccnc12 [Compound 1m, 2-(4-(3-(3,5-Bis(trifluoromethyl)phenyl)thioureido)phenyl)-N-methyl-1,5-naphthyridine-4-carboxamide]
inhibition activity against hepatocellular carcinoma cell lines compared with sorafenib [3]: inhibition activity comparable to sorafenib
